Results reported in the METLIN SMRT retention time set (Domingo-Almenara et al. 2019).

assay: gradient 5% acetonitrile 3 min, to 50% in 2 min, to 85% in 15 min, held 3 min, 100 µL/min; conditions: column: Zorbax Extend-C18 2.1 x 50 mm; eluents: water / acetonitrile, 0.1% formic acid
Procedure, shortened: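 In both positive and negative ionization mode, a quadrupole time-of-flight mass spectrometer coupled to HPLC analyzed pure standards run in mixtures of ~100 molecules. The Zorbax Extend-C18 column (2.1 × 50 mm, 1.8 μm) was operated at 100 μL/min with water and acetonitrile, each containing 0.1% formic acid. The dead volume was 40 μL and the dwell volume 900 μL. Retention time came from adduct peaks that were computationally picked and individually inspected by hand.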

Row | SMILES | RP-LC retention time
1 | Cn1cnc2c(C(=O)Nc3cccc(Cl)c3)nn(-c3ccccc3)c2c1=O | 945 s
2 | COc1ccc(Cl)cc1NC(=O)c1c(N)c(C(=O)c2cccs2)n2ccccc12 | 1140 s
3 | Cc1c(NS(C)(=O)=O)cccc1-c1nc2cccnc2s1 | 682 s
4 | c1ccc(-c2nnc(-c3nc(NCCc4cccs4)c4ccccc4n3)o2)cc1 | 1040 s
5 | Cc1ccc(C(=O)Nc2nccnc2C(=O)N2CCC3(CC2)OCCO3)cc1 | 724 s
6 | CCC(C)NC(=O)Nc1cc2c(cc1Oc1ccccc1)n(C)c(=O)n2C (stereo unspecified) | 853 s
7 | CC(C)c1cc(=O)n2c(n1)SCC2CC(=O)Nc1cccc(F)c1 (stereo unspecified) | 763 s
8 | COc1cccc(-c2c(C(=O)O)nnn2-c2ccc(OC)c(OC)c2)c1 | 715 s
9 | C=CCN1CC[C@@]2(C)c3cc(O)ccc3CC1[C@@H]2C | 644 s
10 | CCN1c2ccc(C)cc2C(=O)NC12CCN(C(=O)c1ccc(OC)cc1)CC2 | 810 s
11 | COc1ccc(-c2noc(Cc3nnc(-c4cccc(F)c4)o3)n2)cc1F | 1000 s
12 | O=C(Nc1ccc2c(c1)OCO2)C1CC(=O)N(CCc2c[nH]c3ccc(F)cc23)C1 (stereo unspecified) | 750 s
13 | Cc1noc(-c2nc(Cc3ccc(F)cc3)no2)n1 | 953 s
14 | CCn1c(C(=O)NCc2ccc(Cl)cc2)cc2sccc21 | 1210 s
15 | CCc1ccc(NC(=O)C2(C)Oc3cccnc3N(C(C)C)C2=O)cc1 (stereo unspecified) | 1120 s
16 | O=C(COc1ccc(F)cc1)Nc1ccc2c(c1)CCC(=O)N2 | 705 s
17 | CN(C)c1cccc(C(=O)NCC2(O)CCCC2)c1 | 569 s
18 | Cc1ccc(-c2noc(-c3cccc(S(=O)(=O)NC4CCCC4)c3)n2)cc1 | 1360 s
19 | CCOc1ccc(-c2noc(Cn3c(=O)n(CCCOC)c(=O)c4ccccc43)n2)cc1OC | 956 s
20 | COC(=O)c1ccc2c(=O)n(-c3ccc(F)cc3)c(N3CCN(c4ccccn4)CC3)nc2c1 | 660 s
21 | Cc1nn2c(CNS(=O)(=O)Cc3ccccc3Cl)c(-c3ccccc3)nc2s1 | 919 s
22 | Cc1ccc(-c2c(C)noc2C)cc1S(=O)(=O)NCc1ccccc1 | 924 s

Row | SMILES | RP-LC retention time
23 | c1ccc2sc(C3(NCC4CC4)CCCCC3)cc2c1 | 799 s
24 | NC(=O)C1CCN(C2CC(=O)N(c3ccc(Oc4ccccc4)cc3)C2=O)CC1 (stereo unspecified) | 662 s
25 | CCN1C(=O)COc2ccc(-c3noc(-c4cccc(Cl)c4)n3)cc21 | 1250 s
26 | Cc1cccc(C)c1OCC(=O)Nc1nc(-c2ccccc2)cs1 | 1180 s
27 | COc1ccccc1CCC(=O)NCc1ccc2c(c1)ncn2C | 595 s
28 | CNC(C)Cc1ccccc1OC (stereo unspecified) | 646 s
29 | COc1cc(=O)c(C(N)=O)nn1-c1ccc(F)cc1 | 579 s
30 | CN1CCc2ccccc2Cc2[nH]c3ccccc3c2CC1 | 738 s
31 | O=C(Cn1cc(-c2nnco2)c2ccccc21)NCc1cccc(Br)c1 | 774 s
32 | CCOc1ccc(-c2cc3c(=O)n(Cc4nc(-c5ccc(OC)c(OC)c5)no4)ncn3n2)cc1 | 1060 s
33 | Cc1ccc2nc(C(=O)N3CCN(c4ccc(Cl)cc4)CC3)cn2c1 | 738 s
34 | O=C(Cn1c(=O)cc(-c2nc(C3CC3)no2)c2ccccc21)Nc1ccc2c(c1)OCCO2 | 906 s
35 | CC(=O)c1cccc(NC(=O)Cn2c(-c3ccc(F)cc3)nc(C)cc2=O)c1 | 963 s
36 | COc1ccc(-c2nc(C)cc3nn(CC(=O)Nc4ccc(C)c(C)c4)c(=O)n23)cc1 | 895 s
37 | OC(CN1CCN(c2ccccc2)CC1)c1ccc2c(c1)OCO2 (stereo unspecified) | 630 s
38 | Cc1nc(-c2ccc3c(c2)n(CC(=O)N2CCc4ccccc42)c(=O)n3C(C)C)no1 | 922 s
39 | O=C(CN1CCN(Cc2ccccc2)C1=O)N1CCN(c2ccccc2F)CC1 | 824 s
40 | COc1ccc(CC(=O)Nc2nnc(SCc3nnc(-c4ccccc4)o3)s2)cc1 | 848 s
41 | COc1ccc(-n2ccn3cc(-c4ccc(F)cc4F)nc3c2=O)cc1 | 716 s
42 | CCOC(=O)c1c(C)oc2ncnc(Nc3cc(C)ccc3OC)c12 | 1260 s
43 | O=C(Cc1ccc(NC(=O)Nc2ccccc2Cl)cc1)NCC(F)(F)F | 696 s
44 | O=C(Cc1csc2nc(-c3cccc(Br)c3)cn12)N1CCN(c2ccccc2)CC1 | 1010 s

The next lines start with the values.

Row | RP-LC retention time | SMILES
45 | 1110 s | CCOc1ccc(N2CCCCn3c2nc2c3c(=O)n(CC(C)C)c(=O)n2C)cc1
46 | 941 s | COc1cccc(-c2noc(C3CCCN3C(=O)Nc3ccc(OC)cc3OC)n2)c1 (stereo unspecified)
47 | 987 s | CCc1ccccc1NC(=O)N1CCCC1c1nc(-c2ccccc2)no1 (stereo unspecified)
48 | 657 s | COCCNC(=O)CC1CCN(C(=O)c2[nH]c(C)c(C)c2C)CC1
49 | 767 s | CCN(C(=O)C1CCC(C)CC1)c1nc(-c2ccc(C)cc2)cs1 (stereo unspecified)
50 | 611 s | CCC1CN2C=NC(N3CCN(C(=O)c4ccccc4)CC3)=CC2=N1 (stereo unspecified)
51 | 775 s | O=C(NCCc1c[nH]c2ccccc12)C1CCCN(c2nn3c(=O)c4c(nc3s2)CCCC4)C1 (stereo unspecified)
52 | 653 s | COc1cccc(-c2nc(-c3ccc4c(c3)ncn4CCN3CCCC3)no2)c1
53 | 789 s | O=C(NCCCc1ccccc1)c1n[nH]c2c1CN(C(=O)C1CC1)CC2
54 | 837 s | CSc1cccc(NC(=O)N2CCC(C)(C(=O)NCc3ccc4c(c3)OCO4)CC2)c1
55 | 894 s | CCNC(=O)Nc1ccc2c(c1)CN(S(=O)(=O)c1ccc3c(c1)CCC3)CCO2
56 | 836 s | CC1CCN(C(=O)c2ccc3c(c2)CCCN3S(C)(=O)=O)CC1
57 | 1020 s | COc1ccc(N2CCN(Cc3nc(-c4ccc(N5CCCC(C)C5)nc4)no3)CC2)cc1 (stereo unspecified)
58 | 1070 s | Cc1ccc(OCC(=O)Nc2cnn(C)c(=O)c2N2CCCCC2)cc1
59 | 892 s | COCc1cc(=O)n(CC(=O)Nc2ccc(Br)cc2)c(N2CCOCC2)n1
60 | 733 s | CCCNC(=O)C1CCCN(c2ccc(SCC(=O)Nc3ccc(C)cc3C)nn2)C1 (stereo unspecified)
61 | 855 s | Cc1ccc(S(=O)(=O)N2C(=O)CCC2C(=O)NC2CCCC2)cc1C (stereo unspecified)
62 | 858 s | CC1Oc2ccc(S(=O)(=O)N3CCC(C(=O)N(C)C4CCCCC4)CC3)cc2NC1=O (stereo unspecified)
63 | 882 s | Cc1noc(-c2nn(C)c3c2CN(C(=O)c2cc4c(s2)CCCC4)CC3)n1
64 | 710 s | Cc1ccc(CNC(=O)Cn2cnc3nc(N4CCCC(C(=O)NC(C)C)C4)sc3c2=O)cc1 (stereo unspecified)
65 | 616 s | Cc1ccnc(N2CCC(C(=O)N3CCN(C(=O)c4ccco4)CC3)CC2)n1
66 | 958 s | CCOc1ccc(NC(=O)c2noc3c2CCCC3)cc1
67 | 593 s | Cc1ccc(CN2CCN(C(=O)c3cccc4[nH]cc(CN5CCSCC5)c34)CC2)cc1
68 | 669 s | CCc1c(C2CCN(C(=O)c3cc(C)on3)CC2)noc1N

Row | RP-LC retention time | SMILES
69 | 575 s | CN1CCN(CCCNc2nnc(-c3nc(-c4ccc(F)cc4)no3)c3ccccc23)CC1
70 | 625 s | Cc1ccc(CN2CCC(CNS(=O)(=O)c3ccc4c(c3)CCCC(=O)N4)C2)cc1 (stereo unspecified)
71 | 741 s | O=c1n(CC2CC2)nc2n1CCN(S(=O)(=O)Cc1ccccc1)CC2
72 | 866 s | CCOC(=O)c1c(C)[nH]c(C(=O)N2CCC(CC(=O)NCc3ccc(OC(C)C)cc3)CC2)c1C
73 | 710 s | CCOc1ccc(NC(=O)CCC2CCN(c3cc(NC4CC4)ncn3)CC2)cc1
74 | 608 s | Cc1cnc(C2CN(C3CCCCCC3)C2)n1Cc1cccnc1
75 | 611 s | CCCCN(CC)CCCNC(=O)C1CCCN(c2ncnc3c2nc2n3CCCCC2)C1 (stereo unspecified)
76 | 800 s | O=C(Cn1c(=O)c2cccn2c2ccc(F)cc21)NC1CCCC1
77 | 1160 s | COc1ccc(N2CCN(C(=O)c3ccc(-c4ccsc4)nc3)CC2)cc1
78 | 822 s | O=C(NCc1ccc(F)cc1Cl)C1CCN(C(=O)c2cc3ccsc3[nH]2)CC1
79 | 825 s | Cc1ccc(N2CCN(C(=O)C3CCc4sc(C(=O)N(C)C)cc4C3)CC2)cc1 (stereo unspecified)
80 | 957 s | CCCNC(=O)c1cc(-c2ccc(Cl)cc2)cn1C
81 | 643 s | N#Cc1ccc(C(=O)Nc2ccc(-c3nnc4n3CCCC4)cc2)cc1
82 | 657 s | COC(=O)c1ccc(Cl)cc1NC(=O)N1CCN(CCn2c(C)nc3cccnc32)CC1
83 | 596 s | Cc1nc2n(c(=O)c1C)CCN2CC(=O)NCc1ccco1
84 | 720 s | CCN(CC)C(=O)c1c(C)sc2ccn(CC)c(=O)c12
85 | 813 s | CCN1C(=O)c2cc(C(=O)Nc3ccc(F)cc3)nn2CC1(C)C(=O)NC1CCCC1 (stereo unspecified)
86 | 1130 s | CCc1nc(-c2csc(S(=O)(=O)N3CCCC(C(=O)Nc4cc(C)ccc4OC)C3)c2)no1 (stereo unspecified)
87 | 814 s | Cc1ccc(NC(=O)C2CCN(S(=O)(=O)c3ccc4c(c3)CCCC(=O)N4)CC2)cc1C
88 | 560 s | CCc1nnc2c(=O)n(CC(=O)N3CCN(c4ccccn4)CC3)c3cccnc3n12
89 | 792 s | CN(Cc1ccsc1)C(=O)NC1CCCC1
90 | 682 s | Cc1ccc(CNc2cc(-n3ccnc3)ncn2)cc1C
91 | 659 s | CC(C)CNC(=O)C1CCCN(c2ccnc(-c3ccc(F)cc3)n2)C1 (stereo unspecified)
